Reference: patent US5219874A, “Heterocyclic acids” (Imperial Chemical Industries PLC, priority 1991, dated 1993)
pIC50: −log10 of the molar value.

Key:
[1] = biological target: T1, U46619 stimulated platelet aggregation (Homo sapiens, UniProt P21731); assay: test (b): blood platelet aggregation test, TXA2 antagonism against U46619; format: cell-based; settings: human platelet-rich plasma; agonist U46619; read-out: pA2, test (b) (converted)
T1 construct: aggregating human, citrated, platelet-rich plasma; endogenous in cells; host or cells: human platelets in citrated platelet-rich plasma
T1 sequence (P21731 1-343): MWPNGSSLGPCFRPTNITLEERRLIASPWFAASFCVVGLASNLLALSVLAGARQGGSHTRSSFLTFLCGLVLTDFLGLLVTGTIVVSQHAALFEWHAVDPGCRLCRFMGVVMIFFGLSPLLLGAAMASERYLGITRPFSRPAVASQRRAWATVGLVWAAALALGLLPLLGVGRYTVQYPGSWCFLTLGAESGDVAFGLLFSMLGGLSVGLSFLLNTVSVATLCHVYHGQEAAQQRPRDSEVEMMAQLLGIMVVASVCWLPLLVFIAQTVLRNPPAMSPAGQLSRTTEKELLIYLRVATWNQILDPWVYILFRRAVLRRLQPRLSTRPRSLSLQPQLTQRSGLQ
From the text: (b) a blood platelet aggregation test based on that described by Born (Nature, 1962, 194, 927-929) and involving:
(i) aggregating human, citrated, platelet-rich plasma by addition of the TXA2 mimetic agent U46619 so that a dose-response curve is generated;
(ii) generating a dose-response curve for U46619 stimulated platelet aggregation in the presence of increasing amounts of test compound (generally in the range 10^-5 M to 10^-10 M); and
(iii) calculating a pA2 value indicating potency of TXA2 antagonism for the test compound, averaged over several concentrations, from the calculated 50% response value for U46619 aggregation in the presence and absence of test compound; or […]

TXA2 synthase = biological target: T2, TXA2 synthase (Homo sapiens, UniProt P24557); assay: test (e): TXA2 synthase inhibition in human platelet microsomal preparation; format: biochemical; settings: [1-^14 C]arachidonic acid
T2 construct: using a human platelet microsomal TXA2 synthase preparation; from tissue; host or cells: human platelet microsomes
T2 sequence (P24557 1-533): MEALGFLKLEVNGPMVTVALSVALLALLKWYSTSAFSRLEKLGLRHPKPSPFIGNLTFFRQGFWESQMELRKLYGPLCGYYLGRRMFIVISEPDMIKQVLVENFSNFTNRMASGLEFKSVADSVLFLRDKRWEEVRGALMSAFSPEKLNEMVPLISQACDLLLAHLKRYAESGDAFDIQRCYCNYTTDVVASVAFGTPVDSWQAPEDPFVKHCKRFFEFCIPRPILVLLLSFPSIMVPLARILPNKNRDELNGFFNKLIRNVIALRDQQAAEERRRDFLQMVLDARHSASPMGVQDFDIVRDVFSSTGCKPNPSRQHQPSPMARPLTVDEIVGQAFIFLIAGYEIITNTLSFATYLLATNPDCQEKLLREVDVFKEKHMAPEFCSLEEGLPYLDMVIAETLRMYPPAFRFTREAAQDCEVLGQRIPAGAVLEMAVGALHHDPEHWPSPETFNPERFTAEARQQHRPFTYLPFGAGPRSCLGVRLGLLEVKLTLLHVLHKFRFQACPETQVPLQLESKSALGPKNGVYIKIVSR

prostacyclin synthase = biological target: T3, prostacyclin synthase (Homo sapiens, UniProt Q16647); assay: test (g): prostacyclin synthase inhibition in cultured human endothelial cells (6-oxoPGF1a radioimmunoassay); format: cell-based
T3 construct: obtaining cultured human endothelial cells from unbilical vein; endogenous in cells; host or cells: cultured human umbilical vein endothelial cells
T3 sequence (Q16647 1-500): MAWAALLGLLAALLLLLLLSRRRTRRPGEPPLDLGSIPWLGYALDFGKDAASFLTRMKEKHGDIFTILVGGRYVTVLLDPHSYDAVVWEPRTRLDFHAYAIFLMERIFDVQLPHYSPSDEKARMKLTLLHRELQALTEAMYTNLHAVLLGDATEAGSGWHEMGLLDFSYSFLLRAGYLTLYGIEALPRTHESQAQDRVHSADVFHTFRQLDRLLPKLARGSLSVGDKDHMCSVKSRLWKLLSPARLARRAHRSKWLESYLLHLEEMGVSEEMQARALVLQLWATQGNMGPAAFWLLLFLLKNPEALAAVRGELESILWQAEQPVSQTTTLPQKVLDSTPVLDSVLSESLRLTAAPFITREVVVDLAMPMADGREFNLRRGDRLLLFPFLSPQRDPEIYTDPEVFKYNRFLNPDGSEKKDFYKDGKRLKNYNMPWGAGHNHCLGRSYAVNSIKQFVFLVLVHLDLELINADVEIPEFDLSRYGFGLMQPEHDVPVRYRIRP
Experimental: The growth medium is aspirated from the wells and the endothelial cell monolayers are washed twice with alquots of medium (1 ml, Earls 199 medium) containing vehicle or compound. The monolayers are first incubated with medium containing vehicle or compound for 30 minutes at 37° C. Arachidonic acid (10 micro M) is added to the medium and the monolayers are incubated for a further 2 hours with a fresh aliquot of medium. The incubation is terminated by aspiration of the medium into indomethacin (1 micro M). The sample is stored at -20° C. and radioimmunoassay for the stable metabolite 6-oxoPGF1a is performed. By comparison of the amount of 6-oxoPGF1a present in a sample incubated in the presence of compound to one incubated in the absence of compound, the prostacyclin synthase inhibitory properties of the compound may be assessed.

Cc1ccc(OC(C)(C)[C@H]2OC[C@@H](C/C=C\CCC(=O)O)[C@@H](c3cncs3)O2)c([N+](=O)[O-])c1 [Example 2] was tested, and the Kb [1] was 7.76 nM, the pIC50 (TXA2 synthase) was 7.80 and the “prostacyclin inhibitory properties, test (g)” value (prostacyclin synthase; IC50 greater than 100 micro M deemed no significant inhibition) was “no significant prostacyclin inhibitory properties”. The pIC50 (prostacyclin synthase; human endothelial cells from umbilical vein, unit inferred) was 3.68.
